Laboratory results published in patent US20130245038A1, “Method For Selecting Or Identifying A Subject For V1B Antagonist Therapy” (ABBVIE DEUTSCHLAND GMBH & CO. KG, priority 2012, published 2013).

What was measured:
Format in all cases: in vivo, human
HPA axis activity [1] = assay: HPA axis function measures (plasma ACTH, serum, saliva and urine cortisol, urine glucocorticoids) in MDD subjects of the clinical study; conditions: for Reduction of urine glucocorticoids compared to placebo: Day 6 to 7
Experimental: Higher urine glucocortioids was defined as ≧3.44 mg per mg creatinine, in a 24-hour collection on the day prior to initiation of study drug administration. The analysis of covariance model for Day 6 to 7 urine glucocorticoids included Day −2 to −1 (baseline) urine glucocorticoids as a covariate and factors for investigator, treatment and treatment * baseline urine glucocorticoids interaction.
(§1) A randomized, placebo-controlled, double-blind clinical study of the safety and pharmacodynamics of Compound A in subjects with MDD was conducted. Fifty-one subjects with a M.I.N.I.-confirmed primary diagnosis of MDD and a clinical global impression of severity of 3 or 4 were randomized to 800 mg Compound A QD (n=31) or matching placebo (n=20) for 7 days. Subjects were confined at clinical sites from two days prior to initial study drug administration until 24 hours after the last dose of study drug. HPA axis function was thoroughly assessed prior to study drug administration and on the 6th and 7th dosing days. A panel of genetic variants related to HPA axis function was assayed. One stated aim of this study was to define a means to identify MDD subjects more likely to respond to Compound A, prior to Compound A administration.
In a ROC analysis, the dependent variable was responder status based on a cutoff on GDM of −0.53. The independent variable was baseline amount of urine glucocorticoids (the sum of cortisol, cortisone, alpha-tetrahydrocortisol, beta-tetrahydrocortisol and tetrahydrocortisone) collected during a 24-hour interval, divided by the amount of creatinine in the same urine collection. The optimal cutoff was 3.44 mg glucocorticoids per mg creatinine. This provided a sensitivity of 58% (14/24 Compound A responders included) and specificity of 67% (4 of 6 Compound A non-responders excluded). One Compound A subject was not included in this analysis due to missing urine glucocorticoid data.

[2] = tested on: physiological response to a stressor (CRH challenge); assay: Cortisol reactivity to a CRH challenge in MDD subjects of the clinical study; conditions: maximum post-CRH serum cortisol divided by pre-CRH serum cortisol, Day 7
Excerpt: as §1, with “High AVP was defined as ≧8.6 pg/mL, in a sample drawn at approximately 8 am or 2 pm on the day prior to initiation of study drug administration. The analysis of covariance model for Day 7 cortisol reactivity included Day −1 (baseline) cortisol reactivity as a covariate and factors for investigator, treatment, AVP class and treatment * AVP class interaction. A randomized,” for “A randomized,”, “A administration. […]” for “A administration.”

subjects with MDD [3] = assay: Randomized, placebo-controlled, double-blind clinical study in subjects with MDD: MASQ and HAM-D symptom scores
Excerpt: High AVP was defined as ≧8.6 pg/mL, in a sample drawn at approximately 8 am or 2 pm on the day prior to initiation of study drug administration. Least squares means and standard errors are shown from analyses of covariance that included Day −1 (baseline) score as a covariate and factors for investigator, treatment, AVP class and treatment * AVP class interaction.
as §1
AVP was the only parameter initially analyzed as a potential predictor of Compound A response as the daytime plasma level prior to study drug administration, measured at any of three times of day (approximately 8 am, 2 pm, and 10 pm), was the most prominent difference of baseline HPA axis function between MDD subjects in this study and HNV subjects of other studies.
Receiver operator characteristic (ROC) analysis was used. In a first ROC, the dependent variable was treatment and the independent variables were the MASQ subscales. This ROC aimed to define MASQ scale score changes that were characteristic of subjects who received Compound A and not characteristic of those who received placebo. Such score changes can be thought to distinguish Compound A responders from Compound A non-responders. Of the five MASQ subscales, General Distress Mixed (GDM) and Depressive (GDD) subscales differentiated Compound A from placebo subjects. […] Similar results were obtained when the dependent variables were analyzed as percent, rather than absolute, change from baseline.
The interaction of AVP (high v normal) and treatment (Compound A v placebo) is shown below. The dependent variables were the MASQ scale scores and the Hamilton Depression Rating Scale (HAM-D)—version score on Day 7. The corresponding scale score on Day −2 was a covariate in each model. Each model included factors for investigator, AVP, treatment and the interaction of AVP and treatment. […] MASQ total scores were normalized to a 1 to 5 scale.

HPA axis activity [4] = assay: Urine glucocorticoids in healthy adults who received Compound A or placebo
Excerpt: Higher urine glucocorticoids subjects are those in whom Compound A effects larger decreases of tonic HPA axis activity, and thus an appropriate population for treatment of MDD using a V1B antagonist.

subjects with MDD [5] = assay: Randomized, placebo-controlled, double-blind clinical study in subjects with MDD: MASQ and HAM-D symptom scores; remark: listed apart in the source
[6] = Compound A 800 mg QD for 7 days v placebo, MDD subjects
[7] = ROC, dependent variable treatment (Compound A 800 mg QD, n=31, v placebo, n=20), MASQ GDM score change, cutoff X −0.53
[8] = high AVP ≧8.6 pg/mL, Compound A 800 mg QD v placebo
[9] = ROC, dependent variable treatment (Compound A 800 mg QD, n=31, v placebo, n=20), MASQ GDD score change, cutoff X −0.58

Structure (SMILES): CCOc1ncccc1[C@]1(NC(=O)N2CCN(C3CCN(C)CC3)CC2)C(=O)N(S(=O)(=O)c2ccc(OC)cc2OC)c2ccc(C#N)cc21 [Compound A]
- Neuroendocrine effects on plasma ACTH, serum cortisol, urine cortisol and total glucocorticoids, high AVP v normal AVP subjects (HPA axis activity [1]; MDD subjects, comparison of the two AVP groups): did not differ
- Reduction of urine glucocorticoids compared to placebo (HPA axis activity [1]; higher urine glucocorticoids MDD subjects (≧3.44 mg per mg creatinine at baseline)): larger reductions of urine glucocorticoids
- Reduction of urine glucocorticoids compared to placebo (HPA axis activity [1]; lower urine glucocorticoids MDD subjects): limited or no difference of reduction of urine glucocorticoids
- Physiological response to a stressor (CRH challenge) compared to placebo ([2]; high AVP MDD subjects): lower physiological response to a stressor
- Physiological response to a stressor (CRH challenge) compared to placebo ([2]; normal AVP MDD subjects): limited or no difference of stress response
- ANCOVA factor for treatment on MASQ GDM and GDD subscales (subjects with MDD [3]; [6]): statistically significant factors for treatment
- False Negative (subjects with MDD [3]; [7]): 7
- True Positive (subjects with MDD [3]; [7]): 24
- Interaction of AVP (high v normal) and treatment, MASQ GDD score on Day 7 (subjects with MDD [3]; [8]): statistically significant
- Interaction of AVP (high v normal) and treatment, MASQ GDM, AD and 7-item HAM-D scores on Day 7 (subjects with MDD [3]; [8]): numerically favorable trends
- Relationship of baseline urine glucocorticoids and reduction of urine glucocorticoids compared to placebo (HPA axis activity [4]): The same relationship has been observed
- ANCOVA factor for treatment on MASQ AD, AA and GDA subscales (subjects with MDD [5]; [6]): not
- False Negative (subjects with MDD [5]; [9]): 3
- True Positive (subjects with MDD [5]; [9]): 28
- Interaction of urine glucocorticoids divided by creatinine (higher v lower) and treatment, MASQ GDM, GDD, GDA, AA and 17- and 7-item HAM-D (subjects with MDD [5]; higher ≧3.44 mg per mg creatinine, 24-hour collection): numerically favorable trends
- Interaction of urine glucocorticoids divided by creatinine (higher v lower) and treatment, MASQ and HAM-D scores on Day 7 (subjects with MDD [5]; higher ≧3.44 mg per mg creatinine, 24-hour collection, all dependent variables): not statistically significant
- Symptom changes on MASQ and HAM-D (subjects with MDD [5]; subset of subjects distinguished by AVP, copeptin and rs7088418/rs17169521 genotypes): more favorable symptom changes
- Symptom changes on MASQ and HAM-D (subjects with MDD [5]; subset of subjects distinguished by NR3C1 genotypes (rs10482672; similar for rs17100236)): unfavorable symptom changes
